Source: ChEMBL document CHEMBL1201862, “PubChem BioAssay data set” (2004)
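Cells were grown in 96-well plates and exposed to each compound for 48 hours at five concentrations; endpoints were interpolated linearly between bracketing concentrations, or set to the highest concentration if not reached. Here, GI50 denotes the concentration required for 50% inhibition of growth.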 The source made the active and inactive calls. Rule as the data show it: active = GI50 up to about 1.1 µM and inactive = higher.

Legend:
Test in all cases: NCI tumour cell line growth inhibition, 48 h
[1] = test system: UO-31
[2] = test system: PC-3
[3] = test system: SK-MEL-28
[4] = test system: KM12
[5] = test system: ACHN
[6] = test system: SF-268
[7] = test system: IGROV-1
[8] = test system: UACC-62
[9] = test system: TK-10
[10] = test system: MDA-MB-435
[11] = test system: HOP-62
[12] = test system: SNB-75
[13] = test system: OVCAR-5
[14] = test system: RXF 393
[15] = test system: SK-MEL-2
[16] = test system: RPMI-8226
[17] = test system: COLO 205
[18] = test system: 786-0
[19] = test system: A549
[20] = test system: MDA-MB-231

| SMILES | GI50 [1] | GI50 [2] | GI50 [3] | GI50 [4] | GI50 [5] | GI50 [6] | GI50 [7] | GI50 [8] | GI50 [9] | GI50 [10] | GI50 [11] | GI50 [12] | GI50 [13] | GI50 [14] | GI50 [15] | GI50 [16] | GI50 [17] | GI50 [18] | GI50 [19] | GI50 [20] |
| --- | --- | --- | --- | --- | --- | --- | --- | --- | --- | --- | --- | --- | --- | --- | --- | --- | --- | --- | --- | --- |
| CC(=O)Oc1ccc(/C=C/C(=O)OCCOC(=O)/C=C/c2ccc(OC(C)=O)c(OC(C)=O)c2)cc1OC(C)=O | 4.01 µM (inactive) | 12.1 µM (inactive) | 14.4 µM (inactive) | 10.1 µM (inactive) | 4.05 µM (inactive) | 8.43 µM (inactive) | 2.95 µM (inactive) | 5 µM (inactive) | 10.2 µM (inactive) | 6.55 µM (inactive) | 1.26 µM (inactive) | 4.23 µM (inactive) | 14.6 µM (inactive) | 7.76 µM (inactive) | 17.5 µM (inactive) | 4.12 µM (inactive) | 14.1 µM (inactive) | 5.06 µM (inactive) | 16.1 µM (inactive) | 14.5 µM (inactive) |
| CCCCC1Cc2ccccc2-c2nc3ccccc3n21 (configuration not stated) | 19.1 µM (inactive) | 10.3 µM (inactive) | 16.7 µM (inactive) | 15.4 µM (inactive) | 17.1 µM (inactive) | 17.3 µM (inactive) | 15.8 µM (inactive) | – | 17.4 µM (inactive) | 17.1 µM (inactive) | 19.1 µM (inactive) | – | 16 µM (inactive) | 15.5 µM (inactive) | 16.4 µM (inactive) | 12.1 µM (inactive) | – | 25.2 µM (inactive) | – | 17.3 µM (inactive) |
| CCCCCC1=CC(=O)C1(Cl)Cl | 15.4 µM (inactive) | 14.5 µM (inactive) | 14.5 µM (inactive) | 13.2 µM (inactive) | 8.3 µM (inactive) | 14.7 µM (inactive) | 18.4 µM (inactive) | 10.9 µM (inactive) | 5.81 µM (inactive) | 11.1 µM (inactive) | 21.4 µM (inactive) | 11.1 µM (inactive) | 15.4 µM (inactive) | 12.7 µM (inactive) | 20.4 µM (inactive) | 2.77 µM (inactive) | 12.2 µM (inactive) | 13.9 µM (inactive) | 23.5 µM (inactive) | 9.93 µM (inactive) |
| Cc1cc2[nH]c3c(C#N)c(-c4ccccc4)c(/C=N/c4cccc(C(F)(F)F)c4)c(=O)n3c2cc1C | > 100 µM (inactive) | > 100 µM (inactive) | > 100 µM (inactive) | 38.4 µM (inactive) | 83.9 µM (inactive) | 64.7 µM (inactive) | – | – | > 100 µM (inactive) | > 100 µM (inactive) | 22.6 µM (inactive) | > 100 µM (inactive) | > 100 µM (inactive) | 37 µM (inactive) | > 100 µM (inactive) | 70 µM (inactive) | > 100 µM (inactive) | 94 µM (inactive) | > 100 µM (inactive) | > 100 µM (inactive) |
| COc1cc(N(C)C)ccc1C=c1c2ccccc2n2c1cc(-c1ccccc1)[n+]2C | 0.493 µM (active) | 0.233 µM (active) | 0.802 µM (active) | 0.17 µM (active) | 0.29 µM (active) | 0.495 µM (active) | – | 0.582 µM (active) | 0.575 µM (active) | 0.358 µM (active) | 0.275 µM (active) | 0.33 µM (active) | 0.566 µM (active) | 0.345 µM (active) | 0.469 µM (active) | 0.151 µM (active) | 0.151 µM (active) | 0.197 µM (active) | 0.197 µM (active) | 0.332 µM (active) |
| COCN1C(=O)[C@@H]2CCCN2C(=O)c2cc([N+](=O)[O-])ccc21 | 35.5 µM (inactive) | 36.3 µM (inactive) | > 100 µM (inactive) | > 100 µM (inactive) | 53.1 µM (inactive) | 35.9 µM (inactive) | 35.5 µM (inactive) | 85.7 µM (inactive) | > 100 µM (inactive) | 66.2 µM (inactive) | 41.1 µM (inactive) | 67.9 µM (inactive) | 52.7 µM (inactive) | 19 µM (inactive) | 64.1 µM (inactive) | – | 81.3 µM (inactive) | > 100 µM (inactive) | 88.3 µM (inactive) | 61.1 µM (inactive) |
| CCCC(CC)c1c(O)c(O)c(C(CC)CCC)c(C(CC)CCC)c1C(CC)CCC (configuration not stated) | > 10 µM (inactive) | > 10 µM (inactive) | > 10 µM (inactive) | > 10 µM (inactive) | > 10 µM (inactive) | > 10 µM (inactive) | > 10 µM (inactive) | > 10 µM (inactive) | > 10 µM (inactive) | > 10 µM (inactive) | > 10 µM (inactive) | – | > 10 µM (inactive) | > 10 µM (inactive) | > 10 µM (inactive) | > 10 µM (inactive) | > 10 µM (inactive) | > 10 µM (inactive) | > 10 µM (inactive) | > 10 µM (inactive) |
| O=C1C(=C(C(=O)c2ccccc2)C(=O)c2ccccc2)OC(c2ccccc2)=C1C(=O)c1ccccc1 | 6.79 µM (inactive) | 13.2 µM (inactive) | 13.9 µM (inactive) | 5.5 µM (inactive) | 4.88 µM (inactive) | 3.8 µM (inactive) | 0.164 µM (active) | 4.33 µM (inactive) | 9.35 µM (inactive) | 8.2 µM (inactive) | 3.03 µM (inactive) | – | 16.9 µM (inactive) | 0.122 µM (active) | 10.8 µM (inactive) | 5.56 µM (inactive) | 12.8 µM (inactive) | 3.51 µM (inactive) | 9.04 µM (inactive) | 6.61 µM (inactive) |
| Cc1cc2c(cc1C)C(=O)C1(C2)Cc2cc3c(cc2C1=O)CCC3 (configuration not stated) | > 100 µM (inactive) | > 100 µM (inactive) | > 100 µM (inactive) | > 100 µM (inactive) | > 100 µM (inactive) | > 100 µM (inactive) | > 100 µM (inactive) | > 100 µM (inactive) | > 100 µM (inactive) | > 100 µM (inactive) | – | > 100 µM (inactive) | > 100 µM (inactive) | > 100 µM (inactive) | > 100 µM (inactive) | > 100 µM (inactive) | > 100 µM (inactive) | > 100 µM (inactive) | > 100 µM (inactive) | > 10 µM (inactive) |
| C/C(=N\Nc1nc2ccccc2n1C)c1ccc2ccccc2n1 | 1.04 µM (active) | 0.212 µM (active) | 5.09 µM (inactive) | 0.528 µM (active) | – | 2.87 µM (inactive) | 0.016 µM (active) | 2.32 µM (inactive) | 2.53 µM (inactive) | 4.24 µM (inactive) | 3.13 µM (inactive) | 7.24 µM (inactive) | 1.53 µM (inactive) | 5.2 µM (inactive) | 6.56 µM (inactive) | – | 0.228 µM (active) | 1.99 µM (inactive) | 2.71 µM (inactive) | 0.916 µM (active) |
| O=C(Nc1ccccc1)C(=O)C(C(=O)c1ccccc1)C(c1ccccc1)c1ccccc1 (configuration not stated) | – | > 10 µM (inactive) | > 10 µM (inactive) | – | – | > 10 µM (inactive) | > 10 µM (inactive) | > 10 µM (inactive) | > 10 µM (inactive) | > 10 µM (inactive) | > 10 µM (inactive) | > 10 µM (inactive) | – | > 10 µM (inactive) | – | > 10 µM (inactive) | > 10 µM (inactive) | > 10 µM (inactive) | > 10 µM (inactive) | > 10 µM (inactive) |
| COC(=O)/C(C#N)=C(\Nc1ccccc1)N1CCOCC1 | > 100 µM (inactive) | > 100 µM (inactive) | > 100 µM (inactive) | – | > 100 µM (inactive) | > 100 µM (inactive) | > 100 µM (inactive) | – | > 100 µM (inactive) | > 100 µM (inactive) | > 100 µM (inactive) | > 100 µM (inactive) | > 100 µM (inactive) | > 100 µM (inactive) | > 100 µM (inactive) | > 100 µM (inactive) | > 100 µM (inactive) | > 100 µM (inactive) | > 100 µM (inactive) | > 100 µM (inactive) |
| O=C1c2ccccc2C(=O)N1n1c(Cc2ccc([N+](=O)[O-])cc2)n[nH]c1=O | > 100 µM (inactive) | > 100 µM (inactive) | > 100 µM (inactive) | > 100 µM (inactive) | > 100 µM (inactive) | > 100 µM (inactive) | > 100 µM (inactive) | 36.3 µM (inactive) | > 100 µM (inactive) | > 100 µM (inactive) | > 100 µM (inactive) | > 100 µM (inactive) | > 100 µM (inactive) | > 100 µM (inactive) | 75.2 µM (inactive) | > 100 µM (inactive) | – | > 100 µM (inactive) | > 100 µM (inactive) | > 100 µM (inactive) |
| CC#CC(O)(C(=O)OC1CC(C)N(C)C(C)(C)C1)C1CCCC1 (configuration not stated) | > 100 µM (inactive) | > 100 µM (inactive) | > 100 µM (inactive) | > 100 µM (inactive) | > 100 µM (inactive) | > 100 µM (inactive) | > 100 µM (inactive) | > 100 µM (inactive) | > 100 µM (inactive) | > 100 µM (inactive) | > 100 µM (inactive) | > 100 µM (inactive) | > 100 µM (inactive) | > 100 µM (inactive) | – | > 100 µM (inactive) | > 100 µM (inactive) | > 100 µM (inactive) | > 100 µM (inactive) | > 100 µM (inactive) |
| CSC1=NC(C(N)=O)C(N)N1C (configuration not stated) | > 100 µM (inactive) | > 100 µM (inactive) | > 100 µM (inactive) | > 100 µM (inactive) | > 100 µM (inactive) | > 100 µM (inactive) | > 100 µM (inactive) | > 100 µM (inactive) | > 100 µM (inactive) | > 100 µM (inactive) | > 100 µM (inactive) | – | > 100 µM (inactive) | > 100 µM (inactive) | > 100 µM (inactive) | > 100 µM (inactive) | > 100 µM (inactive) | > 100 µM (inactive) | > 100 µM (inactive) | 38.6 µM (inactive) |
